From patent US9763998B2, “Serpins: methods of therapeutic β-cell regeneration and function” (Joslin Diabetes Center, Inc., priority 2013, dated 2017) come the findings set out here.

In assay [1] the test system is freshly isolated primary mouse islets (β-cells). Put plainly: Primary mouse islet β-cell proliferation by Ki67 immunofluorescent staining (SerpinB1, ovalbumin, Sivelestat). In kind it is cell-based. An excerpt: To test whether SerpinB1 is a β-cell growth factor, we cultured freshly isolated primary mouse islets in presence of various doses of recombinant human SerpinB1 or ovalbumin (SerpinB14) and evaluated β-cell proliferation by Ki67 immunofluorescent staining (known to those of ordinary skill in the art). […] A major substrate of SerpinB1 is neutrophil elastase. To investigate whether the proliferative action of SerpinB1 is mediated by antagonizing neutrophil elastase activity, we assessed the ability of the neutrophil elastase inhibitor, Sivelestat (Sivelestat is the International Nonproprietary Name (INN) as given by the World Health Organization (WHO); the chemical name is: N-{2-[({4-[(2,2-dimethylpropanoyl)oxy]phenyl}sulfonyl)amino]benzoyl}glycine), to stimulate islet β-cell proliferation in vitro.
In all experiments, cell counting was manually performed in a blinded fashion by a single observer. BrdU+ or Ki67+β cells were assessed by immunofluorescence microscopy. Insulin+ cells showing nuclear DAPI staining were considered as β cells. Insulin+ cells showing nuclear colocalized staining for DAPI+ and Ki67+ (or BrdU+) were counted as proliferating β cells. The double-positive cells (Ins+/BrdU+ or Ins+/Ki67+) were confirmed in randomly selected cells in all experiments by confocal microscopy.

Assay [2] concerns human (EndoC-βH1) β-cells. Put plainly: Ki67 positive human β-cells (EndoC-βH1) with Sivelestat. In kind it is cell-based. The conditions noted are these: 100 μg/ml; compared to non-treated cells.
Setting [3] is: 1 μg/ml, SerpinB1 compared to islets cultured at a similar concentration of ovalbumin.

In the case of “ovalbumin: ovalbumin (SerpinB14), control protein for SerpinB1 in islet culture”, in assay [1] (setting [3]), the “Ki67+ insulin+ cells (β-cell proliferation)” value is listed as “normal low β-cell proliferation”.

Take `CC(C)(C)C(=O)Oc1ccc(S(=O)(=O)Nc2ccccc2C(=O)NCC(=O)O)cc1` [Sivelestat, N-{2-[({4-[(2,2-dimethylpropanoyl)oxy]phenyl}sulfonyl)amino]benzoyl}glycine]: in assay [1] (higher doses (e.g. 10 and 50 μg/ml)), the “number of proliferating insulin+ cells” value was “substantial increase”. Also, in assay [1] (low doses (1 and 5 μg/ml), FIG. 12), the “islet β-cell proliferation in vitro” value is on record as “do not enhance β-cell proliferation”. Besides, the “number of Ki67 positive β-cells” value in assay [2] was “increased”.

B1: SerpinB1: 42 kD serine peptidase inhibitor protein regulating neutrophil proteases; used as recombinant human SerpinB1 (protein, UniProt P30740 1-379, looked up)
Leukocyte elastase inhibitor: MEQLSSANTRFALDLFLALSENNPAGNIFISPFSISSAMAMVFLGTRGNTAAQLSKTFHFNTVEEVHSRFQSLNADINKRGASYILKLANRLYGEKTYNFLPEFLVSTQKTYGADLASVDFQHASEDARKTINQWVKGQTEGKIPELLASGMVDNMTKLVLVNAIYFKGNWKDKFMKEATTNAPFRLNKKDRKTVKMMYQKKKFAYGYIEDLKCRVLELPYQGEELSMVILLPDDIEDESTGLKKIEEQLTLEKLHEWTKPENLDFIEVNVSLPRFKLEESYTLNSDLARLGVQDLFNSSKADLSGMSGARDIFISKIVHKSFVEVNEEGTEAAAATAGIATFCMLMPEENFTADHPFLFFIRHNSSGSILFLGRFSSP
For B1, the “Ki67+ insulin+ cells (β-cell proliferation)” value in assay [1] (setting [3]) is on record as “reached statistical significance”; in assay [1] (isolated mouse islets cultured with various doses of recombinant SerpinB1) it was “dose-dependent increase”.
